{"source": "patent US9943490B2", "about": "“Composite flash-precipitated nanoparticles” (The Trustees of Princeton University, priority 2008, dated 2018)", "assay": "physchem", "details": "aqueous with cosolvent or surfactant or cyclodextrin", "data": [{"molecule": "CC1=C(/C=C/C(C)=C/C=C/C(C)=C/C=C/C=C(C)/C=C/C=C(C)/C=C/C2=C(C)CCCC2(C)C)C(C)(C)CCC1", "note": "[β-carotene]", "values": [{"measurement": "solubility", "result": "~50", "unit": "µg/mL"}]}]}
